{
  "source": "patent US9127005B2",
  "about": "“Isoform selective phospholipase D inhibitors” (Vanderbilt University, priority 2009, dated 2015)",
  "key": {"[1]": {"biological_target": "T1, PLD1 (Homo sapiens (Human), UniProt Q13393)", "T1 sequence (Q13393 whole entry)": "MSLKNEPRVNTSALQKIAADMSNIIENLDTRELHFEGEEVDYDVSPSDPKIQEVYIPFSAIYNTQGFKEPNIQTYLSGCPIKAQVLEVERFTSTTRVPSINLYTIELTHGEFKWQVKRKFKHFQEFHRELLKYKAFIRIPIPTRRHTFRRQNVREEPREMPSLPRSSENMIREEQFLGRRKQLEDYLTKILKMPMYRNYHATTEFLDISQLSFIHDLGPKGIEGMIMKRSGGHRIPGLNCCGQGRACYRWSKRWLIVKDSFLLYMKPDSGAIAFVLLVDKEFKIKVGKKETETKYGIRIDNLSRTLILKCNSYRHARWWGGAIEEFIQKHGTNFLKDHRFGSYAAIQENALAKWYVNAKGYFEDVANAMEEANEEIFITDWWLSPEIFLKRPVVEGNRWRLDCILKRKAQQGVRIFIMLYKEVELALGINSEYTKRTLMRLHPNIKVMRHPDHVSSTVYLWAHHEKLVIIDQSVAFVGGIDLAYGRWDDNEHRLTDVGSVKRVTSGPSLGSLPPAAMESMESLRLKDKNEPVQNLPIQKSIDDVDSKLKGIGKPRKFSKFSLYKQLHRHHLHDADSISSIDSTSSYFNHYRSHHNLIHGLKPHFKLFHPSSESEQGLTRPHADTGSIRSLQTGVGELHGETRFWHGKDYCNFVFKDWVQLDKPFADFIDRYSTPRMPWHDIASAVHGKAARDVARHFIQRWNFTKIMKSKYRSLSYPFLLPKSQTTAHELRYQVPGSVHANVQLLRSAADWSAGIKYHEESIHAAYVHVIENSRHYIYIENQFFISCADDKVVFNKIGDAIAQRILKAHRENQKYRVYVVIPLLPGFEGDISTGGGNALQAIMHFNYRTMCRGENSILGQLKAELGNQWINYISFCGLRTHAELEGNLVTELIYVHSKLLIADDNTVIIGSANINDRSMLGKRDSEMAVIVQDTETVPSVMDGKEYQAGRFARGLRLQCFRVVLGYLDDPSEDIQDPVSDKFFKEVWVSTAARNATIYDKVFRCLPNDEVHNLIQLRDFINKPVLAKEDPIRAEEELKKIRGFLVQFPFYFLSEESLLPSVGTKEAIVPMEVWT", "assay": "Cellular CRCs: PLD1 response in Calu-1 cells", "format": "cell-based", "source_text": "In some aspects PLD activity in the cell is mediated predominately by PLD1. Thus, in some aspects, the cell is the human non-small-cell lung cancer (NSCLC) cell line Calu-1. In some aspects, the cell has been stimulated to activate PLD1 in the cell. For example, the cell can be stimulated with phorbol 12-myristate 13-acetate (PMA)."}, "[2]": {"biological_target": "T2, PLD2 (Homo sapiens (Human), UniProt O14939)", "T2 sequence (O14939 whole entry)": "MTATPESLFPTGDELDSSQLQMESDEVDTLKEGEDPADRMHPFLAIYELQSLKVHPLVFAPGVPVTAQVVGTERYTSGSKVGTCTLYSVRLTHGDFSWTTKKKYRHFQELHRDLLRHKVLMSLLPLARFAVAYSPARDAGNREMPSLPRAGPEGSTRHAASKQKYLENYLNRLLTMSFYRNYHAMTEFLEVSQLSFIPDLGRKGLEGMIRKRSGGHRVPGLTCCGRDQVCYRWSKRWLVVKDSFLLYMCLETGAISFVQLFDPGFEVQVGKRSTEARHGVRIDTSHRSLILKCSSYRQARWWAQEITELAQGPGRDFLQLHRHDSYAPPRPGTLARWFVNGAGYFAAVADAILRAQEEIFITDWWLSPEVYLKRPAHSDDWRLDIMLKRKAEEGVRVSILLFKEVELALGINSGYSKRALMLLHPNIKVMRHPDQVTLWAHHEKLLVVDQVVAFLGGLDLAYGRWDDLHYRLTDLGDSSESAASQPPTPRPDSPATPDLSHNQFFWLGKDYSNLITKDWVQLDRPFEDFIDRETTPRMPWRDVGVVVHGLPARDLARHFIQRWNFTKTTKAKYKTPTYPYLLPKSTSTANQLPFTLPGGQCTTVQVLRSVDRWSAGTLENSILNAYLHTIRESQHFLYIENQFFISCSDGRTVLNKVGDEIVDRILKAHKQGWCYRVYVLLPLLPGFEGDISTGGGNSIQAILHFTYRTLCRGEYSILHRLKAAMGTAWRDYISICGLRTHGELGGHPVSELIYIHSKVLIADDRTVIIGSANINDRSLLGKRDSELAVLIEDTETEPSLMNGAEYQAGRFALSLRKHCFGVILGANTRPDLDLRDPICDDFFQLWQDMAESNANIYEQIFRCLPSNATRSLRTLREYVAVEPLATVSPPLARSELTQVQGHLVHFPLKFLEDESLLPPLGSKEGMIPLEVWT", "assay": "Cellular CRCs: PLD2 response in HEK293gfpPLD2 (293-PLD2) cells", "format": "cell-based", "settings": "for Fold Selective: cellular CRCs, selectivity for PLD2 (293-PLD2) over PLD1 (Calu-1)", "source_text": "In some aspects PLD activity in the cell is mediated predominately by PLD2. Thus, in some aspects, the cell stably overexpresses recombinant PLD2. For example, the cell can be a HEK293 cell stably overexpressing green florescent protein (GFP)-tagged PLD2."}, "[3]": {"biological_target": "T1, PLD1", "assay": "Exogenous CRCs: in vitro PLD1 response", "format": "biochemical", "source_text": "(§1) The screening method can comprise providing a sample comprising a phosholipid and a PLD under conditions that allow the hydrolysis of the phospholipids to a phosphatidic acid, contacting the sample with a candidate agent, measuring enzymatic activity, comparing the enzymatic activity to a control, a decrease in enzymatic activity compared to the control identifying an agent that inhibits the PLD.\n(§2) In some aspects, the PLD is a myr-Aff-1-stimulated mammalian human PLD1 or human PLD2."}, "[4]": {"biological_target": "T2, PLD2", "assay": "Exogenous CRCs: in vitro PLD2 response", "format": "biochemical", "source_text": "as §1, §2"}, "[5]": {"settings": "Calu-1 cells (PLD1), read-out: Cellular CRCs Calu-1 IC50"}, "[6]": {"settings": "HEK293 cells overexpressing GFP-tagged PLD2, read-out: Cellular CRCs 293-PLD2 IC50"}, "[7]": {"settings": "exogenous (in vitro) PLD2, read-out: Exogenous CRCs PLD2 IC50"}},
  "data": [
    {"compound": "4-fluoro-N-((S)-1- ((S)-4-(4- fluorophenyl)-1-oxo- 2,8- diazaspiro[4.5]decan- 8-yl)propan-2- yl)benzamide 2,2,2- trifluoroacetate [P2B]", "values": [
      {"measurement": "IC50", "setting": "[1]; [5]", "value": 1700, "unit": "nM"},
      {"measurement": "IC50", "setting": "[2]; [6]", "value": 2800, "unit": "nM"},
      {"measurement": "IC50", "setting": "[3]", "value": 5150, "unit": "nM"},
      {"measurement": "IC50", "setting": "[4]; [7]", "value": 9440, "unit": "nM"}
    ]},
    {"compound": "C[C@@H](CN1CCC2(CC1)C(=O)NC[C@H]2c1ccc(F)cc1)NC(=O)c1cc2ccccc2[nH]1", "note": "[NG3, N-((S)-1-((S)-4-(4-fluorophenyl)-1-oxo-2,8-diazaspiro[4.5]decan-8-yl)propan-2-yl)-1H-indole-2-carboxamide 2,2,2-trifluoroacetate]", "values": [
      {"measurement": "IC50", "setting": "[1]; [5]", "value": 16, "unit": "nM"},
      {"measurement": "IC50", "setting": "[2]", "value": 140, "unit": "nM"}
    ]},
    {"compound": "C[C@@H](CN1CCC2(CC1)C(=O)NC[C@@H]2c1ccc(F)cc1)NC(=O)C#Cc1ccccc1", "note": "[NGF, N—((S)-1-((R)-4-(4-Fluorophenyl)-1-oxo-2,8-diazaspiro[4.5]decan-8-yl)propan-2-yl)-3-phenylpropiolamide 2,2,2-trifluoroacetate]", "values": [
      {"measurement": "IC50", "setting": "[1]; [5]", "value": 16, "unit": "nM"},
      {"measurement": "IC50", "setting": "[2]", "value": 150, "unit": "nM"}
    ]},
    {"compound": "C[C@@H](CN1CCC2(CC1)C(=O)NC[C@@H]2c1ccc(F)cc1)NC(=O)c1ccc(F)cc1", "note": "[NGH, 4-fluoro-N-((S)-1-((R)-4-(4-fluorophenyl)-1-oxo-2,8-diazaspiro[4.5]deean-8-yl)propan-2-yl)benzamide 2,2,2-txifluoroacetate]", "values": [
      {"measurement": "IC50", "setting": "[1]", "value": 250, "unit": "nM"},
      {"measurement": "IC50", "setting": "[2]", "value": 210, "unit": "nM"},
      {"measurement": "IC50", "setting": "[4]", "value": 2240, "unit": "nM"}
    ]},
    {"compound": "C[C@@H](CN1CCC2(CC1)C(=O)NCC2c1ccc(F)cc1)NC(=O)C1C[C@H]1c1ccccc1", "note": "(stereo partly drawn) [NGQ, trans-N-((S)-1-((S)-4-(4-fluorophenyl)-1-oxo-2,8-diazaspiro[4.5]decan-8-yl)propan-2-yl)-2-phenylcyclopropane-carboxamide 2,2,2-trifluoroacetate]", "values": [
      {"measurement": "IC50", "setting": "[1]; [5]", "value": 3000, "unit": "nM"},
      {"measurement": "IC50", "setting": "[2]; [6]", "value": "> 20000", "unit": "nM"}
    ]},
    {"compound": "C[C@@H](CN1CCC2(CC1)C(=O)NC[C@H]2c1ccc(F)cc1)NC(=O)C#Cc1ccccc1", "note": "[NJ5, N-((S)-1-((S)-4-(4-fluorophenyl)-1-oxo-2,8-diazaspiro[4.5]decan-8-yl)propan-2-yl)-3-phenylpropiolamide 2,2,2-trifluoroacetate]", "values": [
      {"measurement": "IC50", "setting": "[1]; [5]", "value": 320, "unit": "nM"},
      {"measurement": "IC50", "setting": "[2]", "value": 4000, "unit": "nM"}
    ]},
    {"compound": "C[C@@H](CN1CCC2(CC1)C(=O)NC[C@@H]2c1ccc(F)cc1)NC(=O)C1C[C@H]1c1ccccc1", "note": "(stereo partly drawn) [P0A, trans-N-((S)-1-((R)-4-(4-fluorophenyl)-1-oxo-2,8-diazaspiro[4.5]decan-8-yl)propan-2-yl)-2-phenylcyclopropane-carboxamide 2,2,2-trifluoroacetate]", "values": [
      {"measurement": "IC50", "setting": "[1]; [5]", "value": 600, "unit": "nM"},
      {"measurement": "IC50", "setting": "[2]; [6]", "value": 14000, "unit": "nM"}
    ]},
    {"compound": "O=C(C#Cc1ccccc1)NCCN1CCC2(CC1)C(=O)NC[C@@H]2c1ccc(F)cc1.O=C(O)C(F)(F)F", "note": "[P0Q, (R)-N-(2-(4-(4-fluorophenyl)-1-oxo-2,8-diazaspiro[4.5]decan-8-yl)ethyl)-3-phenylpropiolamide 2,2,2-trifluoroacetate]", "values": [
      {"measurement": "IC50", "setting": "[1]", "value": 1200, "unit": "nM"},
      {"measurement": "IC50", "setting": "[2]", "value": 70, "unit": "nM"},
      {"measurement": "Fold Selective", "setting": "[2]", "value": "17-fold PLD2"}
    ]},
    {"compound": "O=C(NCCN1CCC2(CC1)C(=O)NC[C@H]2c1ccc(F)cc1)c1ccc2ccccc2c1.O=C(O)C(F)(F)F", "note": "[P1D]", "values": [
      {"measurement": "IC50", "setting": "[1]; [5]", "value": 3700, "unit": "nM"},
      {"measurement": "IC50", "setting": "[2]; [6]", "value": 220, "unit": "nM"},
      {"measurement": "Fold Selective", "setting": "[2]", "value": "17-Fol PLD2 fold"}
    ]},
    {"compound": "O=C(NCCN1CCC2(CC1)C(=O)NC[C@@H]2c1ccc(F)cc1)C1C[C@H]1c1ccccc1.O=C(O)C(F)(F)F", "note": "(stereo partly drawn) [P1E, trans-N-(2-((R)-4-(4-fluorophenyl)-1-oxo-2,8-diazaspiro[4.5]decan-8-yl)ethyl)-2-phenylcyclopropane-carboxamide 2,2,2-trifluoroacetate]", "values": [
      {"measurement": "IC50", "setting": "[1]; [5]", "value": 6100, "unit": "nM"},
      {"measurement": "IC50", "setting": "[2]; [6]", "value": 760, "unit": "nM"},
      {"measurement": "Fold Selective", "setting": "[2]", "value": "8-fold PLD2"}
    ]},
    {"compound": "C[C@@H](CN1CCC2(CC1)C(=O)NC[C@@H]2c1ccc(F)cc1)NC(=O)c1cc2ccccc2[nH]1", "note": "[P1G, N-((S)-l-((R)-4-(4-fluorophenyl)-1-oxo-2,8-diazaspiro[4.5]decan-8-yl)propan-2-yl)-1H-indole-2-carboxamide 2,2,2-trifluoroacetate]", "values": [
      {"measurement": "IC50", "setting": "[1]", "value": 1, "unit": "nM"},
      {"measurement": "IC50", "setting": "[2]", "value": 12, "unit": "nM"}
    ]},
    {"compound": "C[C@@H](CN1CCC2(CC1)C(=O)NC[C@H]2c1ccc(F)cc1)NC(=O)c1ccc2ccccc2c1", "note": "[P1Q, N-((S)-1-((S)-4-(4-fluorophenyl)-1-oxo-2,8-diazaspiro[4.5]decan-8-yl)propan-2-yl)-2-naphthamide 2,2,2-trifluoroacetate]", "values": [
      {"measurement": "IC50", "setting": "[1]; [5]", "value": 93, "unit": "nM"},
      {"measurement": "IC50", "setting": "[2]; [6]", "value": 540, "unit": "nM"}
    ]},
    {"compound": "O=C(NCCN1CCC2(CC1)C(=O)NC[C@H]2c1ccc(F)cc1)c1ccc2ccccc2c1.O=C(O)C(F)(F)F", "note": "[P22, (S)-N-(2-(4-(4-fluorophenyl)-1-oxo-2,8-diazaspiro[4.5]decan-8-yl)ethyl)-2-naphthamide 2,2,2-trifluoroacetate]", "values": [
      {"measurement": "IC50", "setting": "[1]; [5]", "value": 820, "unit": "nM"},
      {"measurement": "IC50", "setting": "[2]; [6]", "value": 26, "unit": "nM"},
      {"measurement": "Fold Selective", "setting": "[2]; trifluoroacetate", "value": "32-fold PLD2"},
      {"measurement": "IC50", "setting": "[3]", "value": 3900, "unit": "nM"},
      {"measurement": "IC50", "setting": "[4]; [7]", "value": 73, "unit": "nM"}
    ]},
    {"compound": "O=C(NCCN1CCC2(CC1)C(=O)NC[C@@H]2c1ccc(F)cc1)c1cc2ccccc2[nH]1.O=C(O)C(F)(F)F", "note": "[P23, (R)-N-(2-(4-(4-fluorophenyl)-1-oxo-2,8-diazaspiro[4.5]decan-8-yl)ethyl)-1H-indole-2-carboxamide 2,2,2-trifluoroacetate]", "values": [
      {"measurement": "IC50", "setting": "[1]", "value": 21, "unit": "nM"},
      {"measurement": "IC50", "setting": "[2]", "value": 2.5, "unit": "nM"},
      {"measurement": "Fold Selective", "setting": "[2]", "value": 8, "unit": "fold PLD2"}
    ]}
  ]
}
